{
  "source": "patent US20050037436A1",
  "about": "“Test systems and the use thereof for identifying and characterizing compounds” (priority 2000, published 2005)",
  "key": {"[1]": {"tested_on": "HC110-R", "format": "cell-based, Haemonchus contortus", "protocol": "The intracellular free Ca^2+ concentration [Ca^2+]i was measured in COS-7 and HEK293 cells transiently transfected with the HC110-R-EGFP or β2-AR-EGFP construct using the calcium imaging method (see also FIG. 11). In each case 2×10^5 COS-7 and HEK293 cells were applied to a 42 mm cover glass coated with 1% gelatine in 55 mm tissue culture dishes with 5 ml of DMEM medium (with 10% FCS and pen/strep). The transfection took place with the aid of the non-liposomal transfection reagent FuGENE 6 (Roche Molecular Biochemicals, Mannheim). […] Constructs of the HC110-R full-length clone with a GFP tag fused in the correct reading frame, and the complete cDNA of the β2-adrenergic receptor which had likewise been provided with a GFP tag at the 3′ end, were transfected.\nAfter the incubation, the cells loaded with Fura-2/AM were examined under an inverted microscope (Zeiss, Axiovert, Germany) and, in parallel with this, in a digital imaging fluorescence microscope (PTI) and differentiated into transfected and untransfected cells at a wavelength of 440 and 490 nm respectively. On average, 5-7 transfected and non transfected cells were selected by fixing an ROI (region of interest). The extinction was measured at 340 nm (calcium-bound Fura-2/AM) and 380 nm (free Fura-2/AM), and the emission was measured at 510 nm. Evaluation took place using the Image Master 1.x software by forming the quotient of 340:510 nm, 380:510 nm and the ratio of 340/380:510 nm (background corrected images) as a function of the agent added.\nAgents were always added 6 min after starting the measurement by removing an appropriate volume of Na^+ HBS buffer and pipetting the agent directly into the sample vessel for a further 30 to 50 min. The total volume in the sample vessel was constant at 1.5 ml throughout the experiment. […] Addition of CdCl2 and nifedipine took place immediately at the start of the experiment and before addition of α-LTX, and EGTA was added both at the start of the experiment and 4 min after the addition of α-LTX. Dissolved α-LTX was present in a concentration of 300 nM in 50 mM tris-HCl, pH 8.0; BAY 44-4400 was initially dissolved in pure DMSO (stock solutions between 0.004 and 10 μg/ml). The stock solutions were adjusted to the required concentration in the Na^+ HBS buffer. The maximum amount of the active substance BAY 44-4400 which could be dissolved at a final concentration of 0.1% DMSO was found by setting up serial dilutions in Na^+ HBS.\nThe data were analyzed using the Excel 98 table calculation programme. The results are derived from at least 2-4 reproduced experiments on in each case 4-8 transfected and un-transfected cells."}, "[2]": {"tested_on": "Heterakis spumosa"}, "[3]": {"tested_on": "HC110-R", "format": "binding, Haemonchus contortus", "settings": "mixture of N terminus and C terminus expressed in E. coli", "experimental": "In a control mixture with 4 mg of Dynal beads, TST buffer was added in place of PF1022A. Excess PF1022A-biotin was removed by magnetic separation before a mixture of the HC110-R terminus and C terminus expressed in E. coli and previously purified by affinity chromatography was added. After renewed magnetic separation to remove unbound HC110-R fragments, one aliquot derived from 2 mg, and one from 4 mg, of Dynal beads was fractionated by SDS-PAGE and blotted. Detection of the precipitate took place via the N-terminally fused His tag with a mouse anti-His IgG and a rabbit anti-mouse IgG HRP antibody. […] Nonspecific binding of the N or C terminus of HC110-R to the streptavidin-coupled beads was precluded by adding no biotinylated PF1022A to a reaction mixture."}, "[4]": {"target": "T1, β2-R-GFP (Mus musculus, UniProt P18762)", "T1 construct": "was fused with a C-terminal EGFP tag by amplifying the full-length cDNA with the P117 mouse 2AR XhoI 5′ primer; expressed in transfected cells; host or cells: HEK-293, transient (pEGFP-N3)", "T1 sequence (P18762 whole entry, the tested form may be a part)": "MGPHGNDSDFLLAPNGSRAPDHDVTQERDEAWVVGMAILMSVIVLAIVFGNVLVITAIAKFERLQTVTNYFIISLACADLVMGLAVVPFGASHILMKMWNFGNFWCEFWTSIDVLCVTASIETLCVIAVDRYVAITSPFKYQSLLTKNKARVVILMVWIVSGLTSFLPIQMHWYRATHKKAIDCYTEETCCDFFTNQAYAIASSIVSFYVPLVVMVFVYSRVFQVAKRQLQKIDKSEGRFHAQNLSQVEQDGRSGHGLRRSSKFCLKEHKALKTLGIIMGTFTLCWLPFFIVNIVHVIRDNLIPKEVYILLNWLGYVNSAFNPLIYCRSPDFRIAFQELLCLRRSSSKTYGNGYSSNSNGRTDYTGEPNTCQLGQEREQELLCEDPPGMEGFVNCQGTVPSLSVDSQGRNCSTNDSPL", "experiment": "PF1022A binding by FACScan, β2-R-GFP control cells", "protocol": "(§1) For this purpose, HEK-293 cells were transiently transfected with HC110-R-GFP or GFP-HC110-R or else transiently cotransfected with HC110-R-Myc/His and GFP. […] 24 h after the transfection, the cells were incubated with biotinylated PF1022A, and PF1022A-bound cells were detected using streptavidin-phycoerythrin and were finally fixed. A negative control of cells transfected with HC110-R-GFP was incubated only with streptavidin-phycoerythrin without PF1022A-biotin.\n(§2) Phycoerythrin has—like TRITC—an absorption spectrum which overlaps with EGFP, while the emission spectra are adequately separated, so that both fluorochromes can be excited at only one wavelength. Cell detritus was excluded from the measurement of the fluorescence intensity by setting a ‘gate’ on the main cell population. For quantitative evaluation, the limits were fixed for negative, unstained and positive, GFP-fluorescent cells on the basis of the untransfected and GFP-transfected cells.\n(§3) In each case 5×10^5 HEK-293 cells which were not transfected, were transiently transfected with GFP, HC110-R-GFP, GFP-HC110-R, β2-R-GFP and M1-R-GFP, and transiently cotransfected with HC110-R-Myc/His and GFP were incubated, 24 h after the transfection, with 0.5 μg/ml PF1022A-biotin and streptavidin-phycoerythrin (1:300) and then fixed. […]"}, "[5]": {"tested_on": "HC110-R", "experiment": "PF1022A binding to HC110-R-transfected HEK-293 cells by FACScan", "parameters": "species or system Haemonchus contortus", "settings": "for Phycoerythrin fluorescence: 0.5 μg/ml PF1022A-biotin + streptavidin-phycoerythrin", "protocol": "as §1, §2\n(§4) In each case 5×10^5 HEK-293 cells which were not transfected, were transiently transfected with GFP, HC110-R-GFP, GFP-HC110-R, β2-R-GFP and M1-R-GFP, and transiently cotransfected with HC110-R-Myc/His and GFP were incubated, 24 h after the transfection, with 0.5 μg/ml PF1022A-biotin and streptavidin-phycoerythrin (1:300) and then fixed. As negative controls, HC110-R-GFP-transfected cells were incubated only with streptavidin-phycoerythrin, without PF1022A-biotin. […] The standard deviation is derived by determining the means of triplicate mixtures."}, "[6]": {"target": "T2, M1-R-GFP (Homo sapiens, UniProt P11229)", "T2 construct": "The full-length cDNA of a human muscarinic receptor 1 (huM1Rez); expressed in transfected cells; host or cells: HEK-293, transient (pEGFP-N3)", "T2 sequence (P11229 1-460)": "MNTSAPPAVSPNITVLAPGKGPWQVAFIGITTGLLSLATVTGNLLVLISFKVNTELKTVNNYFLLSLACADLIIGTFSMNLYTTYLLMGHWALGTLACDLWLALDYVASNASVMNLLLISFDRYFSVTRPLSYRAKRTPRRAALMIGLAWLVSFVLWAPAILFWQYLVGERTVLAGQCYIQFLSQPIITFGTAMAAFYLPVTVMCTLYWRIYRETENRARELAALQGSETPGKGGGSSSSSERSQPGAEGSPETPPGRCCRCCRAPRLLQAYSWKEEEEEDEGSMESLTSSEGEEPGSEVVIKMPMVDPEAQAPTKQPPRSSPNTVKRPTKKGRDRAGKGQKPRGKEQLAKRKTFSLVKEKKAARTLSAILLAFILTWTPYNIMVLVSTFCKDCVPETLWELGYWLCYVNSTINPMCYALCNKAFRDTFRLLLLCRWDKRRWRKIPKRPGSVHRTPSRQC", "experiment": "PF1022A binding by FACScan, M1-R-GFP control cells", "protocol": "as §1, §2, §3"}, "[7]": {"tested_on": "HEK-293 cells", "experiment": "PF1022A binding by FACScan, untransfected and GFP-transfected control cells", "parameters": "species or system human", "settings": "for Phycoerythrin fluorescence: 0.5 μg/ml PF1022A-biotin + streptavidin-phycoerythrin", "protocol": "as §1, §2, §4"}, "[8]": {"tested_on": "nematodes", "settings": "depending on the particular species (Terada, 1992); cited from earlier work"}, "[9]": {"tested_on": "HC110-R", "format": "binding, Haemonchus contortus", "settings": "renatured; fragment expressed in E. coli", "description": "Since denaturation of proteins is necessary for carrying out SDS-PAGE, there may be destruction of conformation-dependent epitopes. Antibodies or proteins which specifically recognize such epitopes may therefore no longer bind. […] BAY44-4400 differs from PF1022A by 2 morpholine residues which are covalently bonded to the phenyl rings of the two D-phenyllactyl radicals of PF1022A. […] For this purpose, total protein from untransfected HEK-293 cells and HEK-293 cells which transiently express HC110-R-Myc/His, and from the 54 kDa N terminus and the 21 kDa C terminus of HC110-R which were expressed in E. coli, were fractionated by SDS-PAGE, renatured and blotted in the usual way. […] In addition, a partially renatured SDS polyacrylamide gel with the protein fractions of untransfected HEK-293 cells, HEK-293 cells transiently transfected with HC110-R-Myc/His, and the N terminus of HC110-R expressed in E. coli and total protein from H. contortus was blotted, incubated with PF1022A-biotin and detected using streptavidin HRP."}, "[10]": {"tested_on": "endogenous, natural muscarinic acetylcholine receptors", "experiment": "Ca2+ imaging, carbachol stimulation of untransfected HEK-293 cells", "format": "cell-based, human", "settings": "1 mM carbachol; absence of BAY44-4400"}},
  "data": [
    {"smiles": "O=C(O)CN(CCOCCOCCN(CC(=O)O)CC(=O)O)CC(=O)O", "note": "[EGTA]", "values": [
      {"measurement": "α-LTX-induced increase in [Ca2+]i with extracellular Ca2+ removed", "setting": "[1]; 2 mM EGTA before or after addition of α-LTX", "value": "only a small increase"}
    ]},
    {"smiles": "C1CNCCN1", "note": "[piperazine]", "values": [
      {"measurement": "change in Ca2+ balance, piperazine alone", "setting": "[1]; 10 μM piperazine, untransfected and HC110-R-GFP-transfected cells", "value": "no change in the Ca^2+ balance"},
      {"measurement": "effect of piperazine on activity of PF1022A/BAY44-4400", "setting": "[2]", "value": "synergistically enhances the effect of PF1022A/BAY44-4400"}
    ]},
    {"smiles": "CC(C)C[C@H]1C(=O)O[C@H](Cc2ccccc2)C(=O)N(C)[C@@H](CC(C)C)C(=O)O[C@H](C)C(=O)N(C)[C@@H](CC(C)C)C(=O)O[C@H](Cc2ccccc2)C(=O)N(C)[C@@H](CC(C)C)C(=O)O[C@H](C)C(=O)N1C", "note": "[PF1022A, cyclo(-D-Lac-L-MeLeu-D-PhLac-L-MeLeu-)2]", "values": [
      {"measurement": "precipitation of HC110-R fragments", "setting": "[3]", "value": "Only the N-terminal 54 kDa region of HC110-R is precipitated"},
      {"measurement": "change in response to α-LTX after preincubation", "setting": "[1]; 4 ng/ml or 400 ng/ml, 90 minutes preincubation, removed before α-LTX", "value": "no significant change in their response to α-LTX"},
      {"measurement": "Phycoerythrin fluorescence", "setting": "[4]", "value": "0.8 ± 0.1", "unit": "%"},
      {"measurement": "percentage of green-fluorescent cells that bind PF1022A", "setting": "[4]; cells expressing 2-R-GFP", "value": 9.9, "unit": "%"},
      {"measurement": "percentage of green-fluorescent cells that bind PF1022A", "setting": "[5]; cells cotransfected with HC110-R-Myc/His and GFP", "value": 44.5, "unit": "%"},
      {"measurement": "percentage of green-fluorescent cells that bind PF1022A", "setting": "[5]; cells expressing GFP-HC110-R", "value": 26.8, "unit": "%"},
      {"measurement": "percentage of green-fluorescent cells that bind PF1022A", "setting": "[5]; cells expressing HC110-R-GFP", "value": 41.2, "unit": "%"},
      {"measurement": "Phycoerythrin fluorescence", "setting": "[5]; plasmid GFP-HC110-R", "value": "2.5 ± 0.3", "unit": "%"},
      {"measurement": "Phycoerythrin fluorescence", "setting": "[5]; plasmid HC110-R-GFP, nonspecific staining subtracted", "value": "4.5 ± 0.4", "unit": "%"},
      {"measurement": "Phycoerythrin fluorescence", "setting": "[5]; plasmids HC110-R-Myc/His + GFP", "value": "10.3 ± 0.7", "unit": "%"},
      {"measurement": "Phycoerythrin fluorescence", "setting": "[6]", "value": "1.6 ± 0.1", "unit": "%"},
      {"measurement": "percentage of green-fluorescent cells that bind PF1022A", "setting": "[6]; cells expressing M1-R-GFP", "value": 19.2, "unit": "%"},
      {"measurement": "percentage of green-fluorescent cells that bind PF1022A", "setting": "[7]; cells expressing GFP", "value": 7.5, "unit": "%"},
      {"measurement": "Phycoerythrin fluorescence", "setting": "[7]; plasmid GFP", "value": "1.3 ± 0.4", "unit": "%"},
      {"measurement": "Phycoerythrin fluorescence", "setting": "[7]; untransfected", "value": "0 ± 0", "unit": "%"},
      {"measurement": "concentrations at which effect on nematodes is exerted", "setting": "[8]", "value": "100 to 800", "unit": "ng/mL"},
      {"measurement": "binding to 21 kDa C terminus of HC110-R", "setting": "[9]", "value": "no specific PF1022A binding"}
    ]},
    {"smiles": "C[N+](C)(C)CCOC(N)=O.[Cl-]", "note": "[carbachol, carbamylcholine chloride]", "values": [
      {"measurement": "carbachol-induced increase in [Ca2+]i", "setting": "[10]", "value": "53+6.8 nM"}
    ]}
  ]
}
